# Results: the NIST ThermoML archive (doi:10.1021/acs.jced.6b00096)
# Numbers after ± are expanded uncertainties.
# Key:
# [1] = xn = mol fraction of the nth substance listed; settings: 100 kPa, Liquid; for viscosity: Falling or rolling sphere viscometry; for mass density: Vibrating tube method
# [2] = 298.15 K; 100 kPa; Liquid; Falling or rolling sphere viscometry
# [3] = 298.15 K; 100 kPa; Liquid; Vibrating tube method
# [4] = 318.15 K; 100 kPa; Liquid; Falling or rolling sphere viscometry
# [5] = 318.15 K; 100 kPa; Liquid; Vibrating tube method
smiles,measurement,setting,value
CC(C)(C)O [2-methylpropan-2-ol],viscosity,298.15 K; 100 kPa; Metastable liquid; Falling or rolling sphere viscometry,4.426 ± 0.06 mPa·s
same,mass density,298.15 K; 100 kPa; Metastable liquid; Vibrating tube method,780.99 ± 1.6 kg/m3
same,viscosity,318.15 K; 100 kPa; Falling or rolling sphere viscometry; Liquid,1.706 ± 0.026 mPa·s
same,mass density,318.15 K; 100 kPa; Vibrating tube method; Liquid,759.66 ± 1.5 kg/m3
CC(C)(C)O [2-methylpropan-2-ol] + CCO,viscosity,"[1]; 298.15 K, x2 = 0.045",4.314 ± 0.058 mPa·s
same,viscosity,"[1]; 298.15 K, x2 = 0.082",4.195 ± 0.056 mPa·s
same,viscosity,"[1]; 298.15 K, x2 = 0.1518",3.939 ± 0.052 mPa·s
same,viscosity,"[1]; 298.15 K, x2 = 0.287",3.395 ± 0.044 mPa·s
same,viscosity,"[1]; 298.15 K, x2 = 0.4085",2.86 ± 0.037 mPa·s
same,viscosity,"[1]; 298.15 K, x2 = 0.5174",2.384 ± 0.03 mPa·s
same,viscosity,"[1]; 298.15 K, x2 = 0.6167",2.026 ± 0.026 mPa·s
same,viscosity,"[1]; 298.15 K, x2 = 0.707",1.749 ± 0.022 mPa·s
same,viscosity,"[1]; 298.15 K, x2 = 0.7896",1.532 ± 0.019 mPa·s
same,viscosity,"[1]; 298.15 K, x2 = 0.8654",1.349 ± 0.017 mPa·s
same,viscosity,"[1]; 298.15 K, x2 = 0.9355",1.205 ± 0.015 mPa·s
same,mass density,"[1]; 298.15 K, x2 = 0.045",781.92 ± 1.6 kg/m3
same,mass density,"[1]; 298.15 K, x2 = 0.082",782.51 ± 1.6 kg/m3
same,mass density,"[1]; 298.15 K, x2 = 0.1518",783.11 ± 1.6 kg/m3
same,mass density,"[1]; 298.15 K, x2 = 0.287",783.69 ± 1.6 kg/m3
same,mass density,"[1]; 298.15 K, x2 = 0.4085",783.95 ± 1.6 kg/m3
same,mass density,"[1]; 298.15 K, x2 = 0.5174",784.15 ± 1.6 kg/m3
same,mass density,"[1]; 298.15 K, x2 = 0.6167",784.31 ± 1.6 kg/m3
same,mass density,"[1]; 298.15 K, x2 = 0.707",784.42 ± 1.6 kg/m3
same,mass density,"[1]; 298.15 K, x2 = 0.7896",784.55 ± 1.6 kg/m3
same,mass density,"[1]; 298.15 K, x2 = 0.8654",784.72 ± 1.6 kg/m3
same,mass density,"[1]; 298.15 K, x2 = 0.9355",784.85 ± 1.6 kg/m3
same,viscosity,"[1]; 318.15 K, x2 = 0.045",1.724 ± 0.026 mPa·s
same,viscosity,"[1]; 318.15 K, x2 = 0.082",1.721 ± 0.026 mPa·s
same,viscosity,"[1]; 318.15 K, x2 = 0.1516",1.692 ± 0.025 mPa·s
same,viscosity,"[1]; 318.15 K, x2 = 0.2872",1.577 ± 0.022 mPa·s
same,viscosity,"[1]; 318.15 K, x2 = 0.4083",1.442 ± 0.02 mPa·s
same,viscosity,"[1]; 318.15 K, x2 = 0.5174",1.308 ± 0.017 mPa·s
same,viscosity,"[1]; 318.15 K, x2 = 0.6168",1.188 ± 0.015 mPa·s
same,viscosity,"[1]; 318.15 K, x2 = 0.7072",1.078 ± 0.014 mPa·s
same,viscosity,"[1]; 318.15 K, x2 = 0.7896",0.983 ± 0.012 mPa·s
same,viscosity,"[1]; 318.15 K, x2 = 0.8656",0.895 ± 0.011 mPa·s
same,viscosity,"[1]; 318.15 K, x2 = 0.9355",0.817 ± 0.01 mPa·s
same,mass density,"[1]; 318.15 K, x2 = 0.045",761.37 ± 1.5 kg/m3
same,mass density,"[1]; 318.15 K, x2 = 0.082",762.26 ± 1.5 kg/m3
same,mass density,"[1]; 318.15 K, x2 = 0.1516",763.35 ± 1.5 kg/m3
same,mass density,"[1]; 318.15 K, x2 = 0.2872",764.69 ± 1.5 kg/m3
same,mass density,"[1]; 318.15 K, x2 = 0.4083",765.58 ± 1.5 kg/m3
same,mass density,"[1]; 318.15 K, x2 = 0.5174",766.2 ± 1.5 kg/m3
same,mass density,"[1]; 318.15 K, x2 = 0.6168",766.59 ± 1.5 kg/m3
same,mass density,"[1]; 318.15 K, x2 = 0.7072",766.91 ± 1.5 kg/m3
same,mass density,"[1]; 318.15 K, x2 = 0.7896",767.15 ± 1.5 kg/m3
same,mass density,"[1]; 318.15 K, x2 = 0.8656",767.35 ± 1.5 kg/m3
same,mass density,"[1]; 318.15 K, x2 = 0.9355",767.46 ± 1.5 kg/m3
CC(C)(C)O [2-methylpropan-2-ol] + Cc1ccccc1,viscosity,"[1]; 298.15 K, x2 = 0.0822",2.579 ± 0.035 mPa·s
same,viscosity,"[1]; 298.15 K, x2 = 0.1678",1.625 ± 0.022 mPa·s
same,viscosity,"[1]; 298.15 K, x2 = 0.2564",1.184 ± 0.016 mPa·s
same,viscosity,"[1]; 298.15 K, x2 = 0.3488",0.991 ± 0.013 mPa·s
same,viscosity,"[1]; 298.15 K, x2 = 0.4458",0.868 ± 0.011 mPa·s
same,viscosity,"[1]; 298.15 K, x2 = 0.5468",0.744 ± 0.009 mPa·s
same,viscosity,"[1]; 298.15 K, x2 = 0.6525",0.624 ± 0.008 mPa·s
same,viscosity,"[1]; 298.15 K, x2 = 0.7621",0.562 ± 0.007 mPa·s
same,viscosity,"[1]; 298.15 K, x2 = 0.8787",0.561 ± 0.007 mPa·s
same,mass density,"[1]; 298.15 K, x2 = 0.0822",786.59 ± 1.6 kg/m3
same,mass density,"[1]; 298.15 K, x2 = 0.1678",792.96 ± 1.6 kg/m3
same,mass density,"[1]; 298.15 K, x2 = 0.2564",799.78 ± 1.6 kg/m3
same,mass density,"[1]; 298.15 K, x2 = 0.3488",807.09 ± 1.6 kg/m3
same,mass density,"[1]; 298.15 K, x2 = 0.4458",815 ± 1.6 kg/m3
same,mass density,"[1]; 298.15 K, x2 = 0.5468",823.34 ± 1.6 kg/m3
same,mass density,"[1]; 298.15 K, x2 = 0.6525",832.08 ± 1.7 kg/m3
same,mass density,"[1]; 298.15 K, x2 = 0.7621",841.26 ± 1.7 kg/m3
same,mass density,"[1]; 298.15 K, x2 = 0.8787",851.02 ± 1.7 kg/m3
same,viscosity,"[1]; 318.15 K, x2 = 0.0822",1.171 ± 0.017 mPa·s
same,viscosity,"[1]; 318.15 K, x2 = 0.1676",0.899 ± 0.012 mPa·s
same,viscosity,"[1]; 318.15 K, x2 = 0.2565",0.744 ± 0.01 mPa·s
same,viscosity,"[1]; 318.15 K, x2 = 0.3491",0.649 ± 0.009 mPa·s
same,viscosity,"[1]; 318.15 K, x2 = 0.4459",0.582 ± 0.008 mPa·s
same,viscosity,"[1]; 318.15 K, x2 = 0.5467",0.528 ± 0.007 mPa·s
same,viscosity,"[1]; 318.15 K, x2 = 0.6524",0.486 ± 0.006 mPa·s
same,viscosity,"[1]; 318.15 K, x2 = 0.7627",0.461 ± 0.006 mPa·s
same,viscosity,"[1]; 318.15 K, x2 = 0.8788",0.454 ± 0.006 mPa·s
same,mass density,"[1]; 318.15 K, x2 = 0.0822",765.3 ± 1.5 kg/m3
same,mass density,"[1]; 318.15 K, x2 = 0.1676",771.88 ± 1.6 kg/m3
same,mass density,"[1]; 318.15 K, x2 = 0.2565",778.96 ± 1.6 kg/m3
same,mass density,"[1]; 318.15 K, x2 = 0.3491",786.64 ± 1.6 kg/m3
same,mass density,"[1]; 318.15 K, x2 = 0.4459",794.84 ± 1.6 kg/m3
same,mass density,"[1]; 318.15 K, x2 = 0.5467",803.43 ± 1.6 kg/m3
same,mass density,"[1]; 318.15 K, x2 = 0.6524",812.43 ± 1.6 kg/m3
same,mass density,"[1]; 318.15 K, x2 = 0.7627",821.89 ± 1.6 kg/m3
same,mass density,"[1]; 318.15 K, x2 = 0.8788",832.02 ± 1.7 kg/m3
CCO [ethanol],viscosity,[2],1.084 ± 0.013 mPa·s
same,mass density,[3],785.01 ± 1.6 kg/m3
same,viscosity,[4],0.752 ± 0.009 mPa·s
same,mass density,[5],767.54 ± 1.5 kg/m3
Cc1ccccc1 [toluene],viscosity,[2],0.533 ± 0.007 mPa·s
same,mass density,[3],862.01 ± 1.7 kg/m3
same,viscosity,[4],0.447 ± 0.006 mPa·s
same,mass density,[5],843.51 ± 1.7 kg/m3
Cc1ccccc1 [toluene] + CCO,viscosity,"[1]; 298.15 K, x2 = 0.1005",0.549 ± 0.007 mPa·s
same,viscosity,"[1]; 298.15 K, x2 = 0.2013",0.558 ± 0.007 mPa·s
same,viscosity,"[1]; 298.15 K, x2 = 0.3002",0.577 ± 0.007 mPa·s
same,viscosity,"[1]; 298.15 K, x2 = 0.4003",0.606 ± 0.008 mPa·s
same,viscosity,"[1]; 298.15 K, x2 = 0.5001",0.644 ± 0.008 mPa·s
same,viscosity,"[1]; 298.15 K, x2 = 0.6001",0.693 ± 0.009 mPa·s
same,viscosity,"[1]; 298.15 K, x2 = 0.7",0.754 ± 0.009 mPa·s
same,viscosity,"[1]; 298.15 K, x2 = 0.8",0.831 ± 0.01 mPa·s
same,viscosity,"[1]; 298.15 K, x2 = 0.9",0.926 ± 0.011 mPa·s
same,mass density,"[1]; 298.15 K, x2 = 0.1003",857.16 ± 1.7 kg/m3
same,mass density,"[1]; 298.15 K, x2 = 0.2002",852.38 ± 1.7 kg/m3
same,mass density,"[1]; 298.15 K, x2 = 0.3",847.27 ± 1.7 kg/m3
same,mass density,"[1]; 298.15 K, x2 = 0.4",841.65 ± 1.7 kg/m3
same,mass density,"[1]; 298.15 K, x2 = 0.5002",835.35 ± 1.7 kg/m3
same,mass density,"[1]; 298.15 K, x2 = 0.6001",828.22 ± 1.7 kg/m3
same,mass density,"[1]; 298.15 K, x2 = 0.7",819.95 ± 1.6 kg/m3
same,mass density,"[1]; 298.15 K, x2 = 0.8",810.35 ± 1.6 kg/m3
same,mass density,"[1]; 298.15 K, x2 = 0.9",798.87 ± 1.6 kg/m3
same,viscosity,"[1]; 318.15 K, x2 = 0.1004",0.439 ± 0.005 mPa·s
same,viscosity,"[1]; 318.15 K, x2 = 0.2004",0.442 ± 0.006 mPa·s
same,viscosity,"[1]; 318.15 K, x2 = 0.2997",0.449 ± 0.006 mPa·s
same,viscosity,"[1]; 318.15 K, x2 = 0.4007",0.464 ± 0.006 mPa·s
same,viscosity,"[1]; 318.15 K, x2 = 0.5007",0.483 ± 0.006 mPa·s
same,viscosity,"[1]; 318.15 K, x2 = 0.5998",0.508 ± 0.006 mPa·s
same,viscosity,"[1]; 318.15 K, x2 = 0.6998",0.542 ± 0.007 mPa·s
same,viscosity,"[1]; 318.15 K, x2 = 0.7999",0.585 ± 0.007 mPa·s
same,viscosity,"[1]; 318.15 K, x2 = 0.8998",0.641 ± 0.008 mPa·s
same,mass density,"[1]; 318.15 K, x2 = 0.1004",838.1 ± 1.7 kg/m3
same,mass density,"[1]; 318.15 K, x2 = 0.2002",833.2 ± 1.7 kg/m3
same,mass density,"[1]; 318.15 K, x2 = 0.3003",828.01 ± 1.7 kg/m3
same,mass density,"[1]; 318.15 K, x2 = 0.4003",822.39 ± 1.6 kg/m3
same,mass density,"[1]; 318.15 K, x2 = 0.5",816.2 ± 1.6 kg/m3
same,mass density,"[1]; 318.15 K, x2 = 0.6001",809.19 ± 1.6 kg/m3
same,mass density,"[1]; 318.15 K, x2 = 0.7001",801.21 ± 1.6 kg/m3
same,mass density,"[1]; 318.15 K, x2 = 0.7996",791.97 ± 1.6 kg/m3
same,mass density,"[1]; 318.15 K, x2 = 0.9",780.91 ± 1.6 kg/m3
